# Measurements: US11408885B2, “Compositions and multiplex assays for characterizing active proteases and their inhibitors” (Massachusetts Institute of Technology, priority 2017, dated 2022)
# Legend:
# [1] = tested on: active recombinant MMPs; settings: single recombinant MMPs, 500 nM HxBP-Bt
# Description: A single active recombinant MMP (5 nM by mass, 5 μL total vol) was incubated with HxBP-Bt (30 min at 37° C., 500 nM final HxBP-Bt concentration) under reversible binding conditions. Tested MMPs included MMP1, MMP2, MMP3, MMP7, MMP8, MMP9, MMP10, MMP12, and MMP13. Each containing biotin-labeled MMP (MMP reversibly bound to HxBP-Bt) was then incubated with a cocktail of MMP capture beads (60 minutes, RT, 25 μL total vol).
# A cocktail of MMP capture beads diluted in Microparticle Diluent 3 (R&D systems; PN 895857) (17.5 μL bead suspension) was added to the HxBP-Bt-labeled sample (7.5 μL) in a 384-well plate (60 minutes, with rotary agitation, room temperature). Samples were washed 3 times with PBS 0.1% TWEEN®-20 (300 μl each wash) using the Magnetic BioTek plate washer (405 Select TS), incubated with Streptavidin-R-Phycoerythrin (10 μg/mL) diluted in diluted wash buffer concentrate (R&D systems; PN 895003) (15 minutes, with rotary agitation, room temperature), and again washed 3 times by plate washer. Samples were immediately characterized using the FLEXMAP 3D system (Luminex).
# [2] = biological target: T1, MMP9 (Homo sapiens, UniProt P14780); assay: Competitive-MAMBI: loss of HxBP-Bt probe labeling with competitive inhibitor; type: binding; parameters: The recombinant catalytic domains of human MMPs 7 and 9 were purchased from Enzo Life Sciences, and of MMP 12 from Anaspec; purchased Enzo Life Sciences; settings: MMP9 (gelatinase); inhibitor 0.17-7.5 μM, HxBP-Bt 0.5 μM
# Description: (§1) The MAMBI platform was utilized for characterization of inhibitors, in which the HxBP-Bt probe binding to active metalloproteinase was assayed in the presence of small molecule metalloproteases inhibitors. The relative inhibitor potencies were quantified by the loss of labeling by activity-based probe of a target protease with the addition of a competitive inhibitor. Selectivity was additionally estimated by monitoring relative potencies across an enzyme superfamily.
# (§2) The relative inhibition by 10 commercially available inhibitors was characterized in a mixture of six recombinant MMPs, as well as in menstrual serum effluent.
# (§3) Protease labeling was reported as a fraction of MAMBI signal without competitive inhibition.
# Target sequence in this assay (P14780 107-449 limits assumed): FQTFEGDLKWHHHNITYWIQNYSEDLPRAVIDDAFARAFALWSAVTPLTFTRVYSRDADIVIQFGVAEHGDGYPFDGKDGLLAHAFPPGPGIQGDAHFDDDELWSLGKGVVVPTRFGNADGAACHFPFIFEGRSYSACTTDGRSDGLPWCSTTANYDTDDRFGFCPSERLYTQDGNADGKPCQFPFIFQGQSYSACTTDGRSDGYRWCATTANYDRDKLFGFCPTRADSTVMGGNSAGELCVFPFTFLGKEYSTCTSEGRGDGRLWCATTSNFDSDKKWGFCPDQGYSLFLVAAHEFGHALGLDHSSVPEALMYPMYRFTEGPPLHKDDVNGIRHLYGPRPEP
# [3] = tested on: panel of MMPs (MMP1, MMP2, MMP3, MMP7, MMP9, MMP12); assay: as above; type: binding, human; settings: recombinant MMPs and menstrual effluent; inhibitor 0.17-7.5 μM, HxBP-Bt 0.5 μM
# [4] = biological target: T2, MMP2 (Homo sapiens, UniProt P08253); assay: as above; type: binding; parameters: purchased Peprotech; settings: inhibitor 0.17-7.5 μM, HxBP-Bt 0.5 μM
# T2 sequence (P08253 110-660): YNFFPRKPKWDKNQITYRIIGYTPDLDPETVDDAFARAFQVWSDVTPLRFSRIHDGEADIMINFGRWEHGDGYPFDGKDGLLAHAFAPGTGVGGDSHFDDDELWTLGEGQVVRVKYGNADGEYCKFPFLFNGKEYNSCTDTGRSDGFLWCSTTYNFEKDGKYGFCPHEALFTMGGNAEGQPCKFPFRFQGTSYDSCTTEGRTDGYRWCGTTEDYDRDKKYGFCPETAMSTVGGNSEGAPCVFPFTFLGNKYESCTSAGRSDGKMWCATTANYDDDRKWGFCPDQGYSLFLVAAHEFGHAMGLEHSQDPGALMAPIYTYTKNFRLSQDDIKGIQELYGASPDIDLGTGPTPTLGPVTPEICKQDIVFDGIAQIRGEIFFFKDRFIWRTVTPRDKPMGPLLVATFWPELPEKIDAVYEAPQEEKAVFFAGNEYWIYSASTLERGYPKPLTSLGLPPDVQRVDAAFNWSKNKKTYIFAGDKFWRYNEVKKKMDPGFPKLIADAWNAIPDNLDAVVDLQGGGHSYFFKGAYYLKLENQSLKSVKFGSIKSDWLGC
# [5] = biological target: T3, MMP3 (Homo sapiens, UniProt P08254); assay: as above; type: binding; parameters: purchased Peprotech; settings: recombinant and menstrual effluent, inhibitor 0.17-7.5 μM, HxBP-Bt 0.5 μM
# Description: as §1, §2, §3
# Target sequence in this assay (P08254 100-477): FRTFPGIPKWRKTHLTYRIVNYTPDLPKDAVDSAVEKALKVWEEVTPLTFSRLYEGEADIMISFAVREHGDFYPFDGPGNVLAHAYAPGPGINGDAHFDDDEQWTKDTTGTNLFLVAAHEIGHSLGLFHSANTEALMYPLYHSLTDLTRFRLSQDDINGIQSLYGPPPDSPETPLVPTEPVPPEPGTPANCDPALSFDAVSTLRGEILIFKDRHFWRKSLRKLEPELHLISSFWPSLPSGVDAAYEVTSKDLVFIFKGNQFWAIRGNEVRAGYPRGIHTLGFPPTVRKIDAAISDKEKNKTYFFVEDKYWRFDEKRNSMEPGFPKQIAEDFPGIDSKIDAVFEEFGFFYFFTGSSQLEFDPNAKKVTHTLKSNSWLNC
# [6] = biological target: T4, MMP1 (Homo sapiens, UniProt P03956); assay: as above; type: binding; parameters: purchased Peprotech; settings: recombinant and effluent derived samples, inhibitor 0.17-7.5 μM, HxBP-Bt 0.5 μM
# T4 sequence (P03956 100-469): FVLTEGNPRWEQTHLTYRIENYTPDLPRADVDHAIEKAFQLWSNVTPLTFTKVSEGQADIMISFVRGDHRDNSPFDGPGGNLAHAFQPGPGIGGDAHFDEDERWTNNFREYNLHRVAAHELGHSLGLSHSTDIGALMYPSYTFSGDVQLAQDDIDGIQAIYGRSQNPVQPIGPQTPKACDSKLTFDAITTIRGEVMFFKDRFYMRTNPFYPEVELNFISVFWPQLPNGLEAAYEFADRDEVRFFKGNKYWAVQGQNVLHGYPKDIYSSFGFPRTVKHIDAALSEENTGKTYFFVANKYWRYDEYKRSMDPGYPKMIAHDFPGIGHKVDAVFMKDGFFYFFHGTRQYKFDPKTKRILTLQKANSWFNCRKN
# [7] = biological target: T1, MMP9; settings: literature; cited from earlier work
# Target sequence in this assay (P14780 94-707, species assumed): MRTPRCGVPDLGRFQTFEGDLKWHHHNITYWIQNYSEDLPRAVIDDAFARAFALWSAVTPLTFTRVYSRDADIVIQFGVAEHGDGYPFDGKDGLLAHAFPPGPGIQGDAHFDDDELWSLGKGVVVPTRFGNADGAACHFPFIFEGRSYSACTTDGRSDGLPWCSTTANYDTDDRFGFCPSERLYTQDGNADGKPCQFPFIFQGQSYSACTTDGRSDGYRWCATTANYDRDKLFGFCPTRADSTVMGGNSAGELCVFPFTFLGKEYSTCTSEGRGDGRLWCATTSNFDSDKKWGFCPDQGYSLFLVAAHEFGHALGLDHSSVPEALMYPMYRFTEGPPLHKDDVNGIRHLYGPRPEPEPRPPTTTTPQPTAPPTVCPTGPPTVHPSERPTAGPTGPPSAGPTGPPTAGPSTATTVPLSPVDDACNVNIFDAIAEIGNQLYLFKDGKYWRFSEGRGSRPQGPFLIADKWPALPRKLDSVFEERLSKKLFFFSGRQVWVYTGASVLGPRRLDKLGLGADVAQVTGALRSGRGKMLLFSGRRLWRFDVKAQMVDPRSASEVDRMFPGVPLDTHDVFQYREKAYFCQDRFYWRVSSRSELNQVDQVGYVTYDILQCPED
# [8] = biological target: T5, MMP7 (Homo sapiens, UniProt P09237); settings: literature; cited from earlier work
# T5 sequence (P09237 95-267): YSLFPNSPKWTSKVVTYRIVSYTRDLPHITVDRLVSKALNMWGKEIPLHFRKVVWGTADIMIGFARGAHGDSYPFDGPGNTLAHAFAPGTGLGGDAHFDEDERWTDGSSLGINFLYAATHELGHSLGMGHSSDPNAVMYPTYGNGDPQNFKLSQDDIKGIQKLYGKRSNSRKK
# [9] = biological target: T5, MMP7; assay: Competitive-MAMBI: loss of HxBP-Bt probe labeling with competitive inhibitor; type: binding; parameters: The recombinant catalytic domains of human MMPs 7 and 9 were purchased from Enzo Life Sciences, and of MMP 12 from Anaspec; purchased Enzo Life Sciences; settings: recombinant and effluent derived samples, inhibitor 0.17-7.5 μM, HxBP-Bt 0.5 μM
# Description: as §1, §2, §3
# [10] = biological target: T2, MMP2; settings: literature; cited from earlier work
# [11] = biological target: MMP12 (Homo sapiens, UniProt P39900); settings: literature; cited from earlier work
# [12] = biological target: T3, MMP3; settings: literature; cited from earlier work
# Target sequence in this assay (P08254 100-477, species assumed): as the sequence (P08254 100-477) above
# Chain of MMP12 (P39900 106-470, species assumed): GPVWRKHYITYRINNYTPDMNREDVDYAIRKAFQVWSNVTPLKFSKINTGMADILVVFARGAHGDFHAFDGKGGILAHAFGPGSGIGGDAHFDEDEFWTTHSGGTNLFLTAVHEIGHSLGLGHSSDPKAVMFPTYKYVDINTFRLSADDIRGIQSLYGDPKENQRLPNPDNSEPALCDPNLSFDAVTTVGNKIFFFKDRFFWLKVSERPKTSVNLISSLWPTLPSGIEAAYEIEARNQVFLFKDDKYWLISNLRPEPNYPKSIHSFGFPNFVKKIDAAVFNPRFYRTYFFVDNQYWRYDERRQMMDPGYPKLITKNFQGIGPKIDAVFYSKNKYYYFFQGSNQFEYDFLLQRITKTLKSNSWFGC
smiles,measurement,setting,value
"O=C(O)CN(CCN(CC(=O)O)CC(=O)O)CC(=O)O [EDTA, Ethylenediaminetetraacetic acid]",effect on HxBP-Bt binding (MAMBI signal),[1],completely eliminated HxBP-Bt binding
"O=S(=O)(CC1CS1)c1ccc(Oc2ccccc2)cc1 (stereo not shown) [SB 3CT, SB-3CT]",inhibitory activity (loss of probe labeling),[2],did not prevent the binding of HxBP-Bt
CNC(=O)[C@@H](NC(=O)[C@H](CC(C)C)[C@H](O)C(=O)NO)C(C)(C)C [Marimastat],inhibitory activity (loss of probe labeling),[3],inhibitory activity toward every protease tested
CC(C)ON([C@@H](C(=O)NO)C(C)C)S(=O)(=O)c1ccc(-c2ccccc2)cc1 [ARP 101],inhibitory activity (loss of probe labeling),[4],increased potency
same,inhibitory activity (loss of probe labeling),[5],increased potency
"CN1C(=O)N(CC(C(=O)NO)[C@H](CC2CCCC2)C(=O)N2CCCCC2)C(=O)C1(C)C (stereo partly shown) [Ro32-3555, Ro 32-3555 (Trocade)]",inhibitory activity (loss of probe labeling),[6],significant potency
same,Ki,[7],95 nM
same,Ki,[8],42 nM
same,inhibitory activity (loss of probe labeling),[9],significant potency
same,Ki,[10],154 nM
COC[C@H](NC(=O)[C@H](NC(=O)[C@@H](CCCc1ccc(-c2ccccc2)c(C)c1)CC(=O)O)C(C)(C)C)c1ccccc1 [UK 370106],IC50,[7],30400 nM
same,IC50,[8],5.8 µM
same,IC50,[11],42 nM
same,inhibitory activity (loss of probe labeling),[5],expected inhibition of MMP3
same,IC50,[12],23 nM
O=C(O)C[C@@H](NC(=O)c1cc(-c2ccc(-c3ccncc3)cc2)cs1)c1ccccc1 [PF 356231],IC50,[8],96 µM
same,IC50,[10],> 100 nM
"O=P(O)(O)C(NS(=O)(=O)c1ccc(-c2ccc(Cl)cc2)cc1)P(=O)(O)O [MMP inhibitor 2, MMP Inhibitor 2 IV]",IC50,[7],> 1000 nM
same,inhibitory activity (loss of probe labeling),[4],did not prevent the binding of HxBP-Bt
same,inhibitory activity (loss of probe labeling),[2],did not prevent the binding of HxBP-Bt
"N#Cc1ccc(-c2ccc(OCCC(=O)NO)cc2)cc1 [MMP Inhib 3 VII, MMP3 Inhibitor VII]",inhibitory activity (loss of probe labeling),[5],expected inhibition of MMP3
CNC(=O)[C@H](Cc1ccccc1)NC(=O)[C@H](CC(C)C)[C@H](CSc1cccs1)C(=O)NO [Batimastat],IC50,[7],1 nM
same,IC50,[8],0.006 µM
same,inhibitory activity (loss of probe labeling),[3],inhibitory activity toward every protease tested
same,inhibitory activity (loss of probe labeling),[5],stronger inhibitory activity against MMP3 compared with Marimastat
